According to patent US11648254B2 (Kumquat Biosciences Inc., priority 2021, dated 2023):
Like-named read-outs stand apart in the source and are kept apart here.

Columns and labels:
SOS1 = SOS1 (Homo sapiens (Human), UniProt Q07889); assay: Ras-SOS interaction assay (HTRF); type: biochemical
[1] = test system: MIA PaCa-2 cells (K-Ras G12C); assay: Ras-SOS cellular growth inhibition assay (CellTiter-Glo, 3D); type: cell-based; conditions: Homo sapiens
Protocol: MIA PaCa-2 (ATCC CRL-1420) and NCI-H1792 (ATCC CRL-5895) cell lines comprise a G12C mutation can be used to assess Ras cellular signaling in vitro, e.g., in response to a subject compound of the present disclosure. […] Cell culture medium (comprising, for example, MIA PaCa-2 cells) is prepared with DMEM/Ham's F12 (e.g., with stable Glutamine, 10% FCS, and 2.5% Horse Serum. NCI-H1792 culture medium is prepared with RPMI 1640 (e.g., with stable Glutamine) and 10% FCS. A CellTiter-Glo (CTG) luminescent based assay (Promega) is used to assess growth of the cells, as a measurement of the ability of the compounds herein to inhibit Ras signaling in the cells. The cells (e.g., 800-1200 per well) are seeded in their respective culture medium in standard tissue culture-treated ultra-low attachment surface 96-well format plates (Corning Costar #3474). The day after plating, cells are treated with a dilution series (e.g., a 9 point 3-fold dilution series) of the compounds herein (e.g., approximately 125 μl final volume per well). Cell viability can be monitored (e.g., approximately 5 days later) according to the manufacturer's recommended instructions, where the CellTiter-Glo reagent is added (e.g., approximately 65 μl), vigorously mixed, covered, and placed on a plate shaker (e.g., approximately for 20 min) to ensure sufficient cell lysis prior to assessment of luminescent signal. The IC50 values are determined using the four-parameter fit. The resulting IC50 value is a measurement of the ability of the compounds herein to reduce cell growth of Ras-driven cells as representative tumor cells.

[2] = test system: NCI-H1975 cells (EGFR T790M L858R); assay: EGFR-SOS cellular inhibition assay (CellTiter-Glo, 3D); type: cell-based; conditions: Homo sapiens
[3] = K-RasG13D utilized, read-out: IC50 inhibition of SOS
[4] = K-RasG13D, read-out: IC50 value against SOS1
[5] = MIA PaCa-2, 120 h, MIA PaCa-2, 3D proliferation, about 5 days, read-out: Bio-Cell-Prolif-3D (MiaPaca2 IC50)
[6] = 120 h, NCI-H1975, 3D proliferation, about 5 days, read-out: Bio-Cell-Prolif-3D (H1975 IC50)
[7] = NCI-H1975, EGFR T790M L858R, read-out: IC50 in inhibiting growth of NCI-H1975 cell line
[8] = MIA PaCa-2, MIA PaCa-2, read-out: IC50 in inhibiting MIA PaCa-2 cell growth

SOS1, sequence (Q07889 564-1049): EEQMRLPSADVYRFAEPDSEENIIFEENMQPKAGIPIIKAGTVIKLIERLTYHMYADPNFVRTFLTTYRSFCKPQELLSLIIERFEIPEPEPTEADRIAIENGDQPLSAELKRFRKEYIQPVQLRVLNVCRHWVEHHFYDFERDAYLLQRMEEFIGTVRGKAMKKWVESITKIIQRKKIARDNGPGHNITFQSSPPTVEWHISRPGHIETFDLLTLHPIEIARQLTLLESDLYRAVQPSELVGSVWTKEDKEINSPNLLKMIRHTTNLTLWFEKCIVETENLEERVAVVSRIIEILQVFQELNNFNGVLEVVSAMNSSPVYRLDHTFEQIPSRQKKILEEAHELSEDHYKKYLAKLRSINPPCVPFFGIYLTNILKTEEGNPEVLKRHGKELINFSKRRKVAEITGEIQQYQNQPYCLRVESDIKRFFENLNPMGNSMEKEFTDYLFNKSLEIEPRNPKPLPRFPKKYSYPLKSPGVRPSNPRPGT

Row | SMILES | IC50 (SOS1; [3]) [nM] | IC50 (SOS1; [4]) [nM] | IC50 [1, 5] [nM] | IC50 [2, 6] [nM] | IC50 [2, 7] [nM] | IC50 [1, 8] [nM]
1 | COc1nc2nc(C)nc(N[C@H](C)c3cccc(C(F)F)c3F)c2cc1C1(C#N)CCN(C)CC1 [Compound 128, (R)-4-(4-((1-(3-(difluoromethyl)-2-fluorophenyl)ethyl)amino)-7-methoxy-2-methylpyrido[2,3-d]pyrimidin-6-yl)-1-methylpiperidine-4-carbonitrile] | < 100 | < 50 | ≤ 1000 | ≤ 1000 |  | < 500
2 | CNCCN1CCC(c2cc3c(N[C@H](C)c4cccc(C(F)F)c4F)nc(C)nc3nc2OC)CC1 [Compound 129, (R)-N-(1-(3-(difluoromethyl)-2-fluorophenyl)ethyl)-7-methoxy-2-methyl-6-(1-(2-(methyl-12-azaneyl)ethyl)piperidin-4-yl)pyrido[2,3-d]pyrimidin-4-amine] | < 100 | < 50 | ≤ 1000 | 1000 to 10000 |  | 
3 | COc1nc2nc(C)nc(N[C@H](C)c3cccc(C(F)F)c3F)c2cc1C1CCN(CCO)CC1 [Compound 130, (R)-2-(4-(4-((1-(3-(difluoromethyl)-2-fluorophenyl)ethyl)amino)-7-methoxy-2-methylpyrido[2,3-d]pyrimidin-6-yl)piperidin-1-yl)ethan-1-ol] | < 100 | < 50 | ≤ 1000 | ≤ 1000 | < 500 | < 500
4 | Cc1nc(N[C@H](C)c2cccc(C(F)F)c2F)c2cc(S(=O)(=O)C3CCN(C)CC3)c(Cl)nc2n1 [Compound 132, (R)-7-chloro-N-(1-(3-(difluoromethyl)-2-fluorophenyl)ethyl)-2-methyl-6-((1-methylpiperidin-4-yl)sulfonyl)pyrido[2,3-d]pyrimidin-4-amine] |  | < 50 | ≤ 1000 | ≤ 1000 | < 500 | < 500
5 | CNc1nc2nc(C)nc(N[C@H](C)c3cccc(C(F)F)c3F)c2cc1C1CCS(=O)(=O)CC1 [Compound 136, (R)-4-(4-((1-(3-(difluoromethyl)-2-fluorophenyl)ethyl)amino)-2-methyl-7-(methylamino)pyrido[2,3-d]pyrimidin-6-yl)tetrahydro-2H-thiopyran 1,1-dioxide] | < 100 | < 50 | ≤ 1000 | ≤ 1000 | < 500 | < 500
6 | Cc1nc(N[C@H](C)c2cccc(C(F)F)c2F)c2cc(S(=O)(=O)C3CCN(C)CC3)c(C)nc2n1 [Compound 138, (R)-N-(1-(3-(difluoromethyl)-2-fluorophenyl)ethyl)-2,7-dimethyl-6-((1-methylpiperidin-4-yl)sulfonyl)pyrido[2,3-d]pyrimidin-4-amine] |  | < 50 | ≤ 1000 | ≤ 1000 | < 500 | < 500
7 | CNc1nc2nc(C)nc(N[C@H](C)c3cccc(C(F)F)c3F)c2cc1S(=O)(=O)C1CCN(C)CC1 [Compound 139, (R)-N4-(1-(3-(difluoromethyl)-2-fluorophenyl)ethyl)-N7,2-dimethyl-6-((1-methylpiperidin-4-yl)sulfonyl)pyrido[2,3-d]pyrimidine-4,7-diamine] | < 100 | < 50 | ≤ 1000 | ≤ 1000 | < 500 | < 500
8 | Cc1nc(N[C@H](C)c2cccc(C(F)F)c2F)c2cc(C3CCS(=O)(=O)CC3)c(N(C)C)nc2n1 [Compound 143, (R)-4-(4-((1-(3-(difluoromethyl)-2-fluorophenyl)ethyl)amino)-7-(dimethylamino)-2-methylpyrido[2,3-d]pyrimidin-6-yl)tetrahydro-2H-thiopyran 1,1-dioxide] | < 100 | < 50 | ≤ 1000 | ≤ 1000 | < 500 | < 500

More lines, now with the values ahead:

Row | IC50 (SOS1; [3]) [nM] | IC50 (SOS1; [4]) [nM] | IC50 [1, 5] [nM] | IC50 [2, 6] [nM] | IC50 [2, 7] [nM] | IC50 [1, 8] [nM] | SMILES
9 | < 100 | < 50 | ≤ 1000 | ≤ 1000 | < 500 |  | COc1nc2nc(C)nc(N[C@H](C)c3cccc(C(F)F)c3F)c2cc1C1(C#N)CCS(=O)(=O)CC1 [Compound 126, (R)-4-(4-((1-(3-(difluoromethyl)-2-fluorophenyl)ethyl)amino)-7-methoxy-2-methylpyrido[2,3-d]pyrimidin-6-yl)tetrahydro-2H-thiopyran-4-carbonitrile 1,1-dioxide]
10 | < 100 | < 50 | ≤ 1000 | ≤ 1000 | < 500 | < 500 | COc1nc2nc(C)nc(N[C@H](C)c3cccc(C(F)F)c3F)c2cc1C1=CCS(=O)(=O)CC1 [Compound 127, (R)-4-(4-((1-(3-(difluoromethyl)-2-fluorophenyl)ethyl)amino)-7-methoxy-2-methylpyrido[2,3-d]pyrimidin-6-yl)-3,6-dihydro-2H-thiopyran 1,1-dioxide]
11 | < 100 | < 50 | ≤ 1000 | ≤ 1000 | < 500 | < 500 | COc1nc2nc(C)nc(N[C@H](C)c3cccc(C(F)F)c3F)c2cc1S(=O)(=O)C1CCN(C)CC1 [Compound 133, (R)-N-(1-(3-(difluoromethyl)-2-fluorophenyl)ethyl)-7-methoxy-2-methyl-6-((1-methylpiperidin-4-yl)sulfonyl)pyrido[2,3-d]pyrimidin-4-amine]
12 | < 100 | < 50 | ≤ 1000 | ≤ 1000 | < 500 | < 500 | COc1nc2nc(C)nc(N[C@H](C)c3cccc(C(F)F)c3F)c2cc1[C@@H]1CCCN(C)C1 [Compound 134, N-((R)-1-(3-(difluoromethyl)-2-fluorophenyl)ethyl)-7-methoxy-2-methyl-6-((S)-1-methylpiperidin-3-yl)pyrido[2,3-d]pyrimidin-4-amine]
13 | < 100 | < 50 | ≤ 1000 | ≤ 1000 |  |  | COc1nc2nc(C)nc(N[C@H](C)c3cccc(C(F)F)c3F)c2cc1[C@H]1CCCN(C)C1 [Compound 135, N-((R)-1-(3-(difluoromethyl)-2-fluorophenyl)ethyl)-7-methoxy-2-methyl-6-((R)-1-methylpiperidin-3-yl)pyrido[2,3-d] pyrimidin-4-amine]
14 | < 100 | < 50 | ≤ 1000 | ≤ 1000 |  | < 500 | Cc1nc(N[C@H](C)c2cccc(C(F)F)c2F)c2cc(C3CCS(=O)(=O)CC3)c(OCCO)nc2n1 [Compound 137, (R)-4-(4-((1-(3-(difluoromethyl)-2-fluorophenyl)ethyl)amino)-7-(2-hydroxyethoxy)-2-methylpyrido[2,3-d]pyrimidin-6-yl)tetrahydro-2H-thiopyran 1,1-dioxide]
15 | < 100 | < 50 | ≤ 1000 | ≤ 1000 | < 500 | < 500 | COc1nc2nc(C)nc(N[C@H](C)c3cccc(C(F)(F)F)c3C)c2cc1N1CCS(=O)(=O)CC1 [Compound 142, (R)-4-(7-methoxy-2-methyl-4-((1-(2-methyl-3-(trifluoromethyl)phenyl)ethyl)amino)pyrido[2,3-d]pyrimidin-6-yl)thiomorpholine 1,1-dioxide]
